Data taken from PubChem BioAssay (NCI).
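The compound was tested at five concentrations on cells cultured in 96-well plates, with a 48-hour exposure period. At the GI50, growth is halved. At the TGI there is no net growth.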

Key:
Experiment in all cases: NCI-60 cell line screen, 48 h
SK-MEL-28 melanoma = system: SK-MEL-28 melanoma
MALME-3M melanoma = system: MALME-3M melanoma
TK-10 renal = system: TK-10 renal
SNB-75 CNS = system: SNB-75 CNS
UO-31 renal = system: UO-31 renal
U251 CNS = system: U251 CNS
HT29 colon = system: HT29 colon
DLD-1 colon = system: DLD-1 colon
HOP-18 NSCLC = system: HOP-18 NSCLC
ACHN renal = system: ACHN renal
HL-60(TB) leukemia = system: HL-60(TB) leukemia
SF-539 CNS = system: SF-539 CNS
SN12C renal = system: SN12C renal
SNB-19 CNS = system: SNB-19 CNS
NCI-H23 lung = system: NCI-H23 lung
KM20L2 colon = system: KM20L2 colon
OVCAR-4 ovarian = system: OVCAR-4 ovarian
NCI-H522 lung = system: NCI-H522 lung
NCI-H226 lung = system: NCI-H226 lung
SK-MEL-2 melanoma = system: SK-MEL-2 melanoma
DMS 114 small cell lung = system: DMS 114 small cell lung
HCC-2998 colon = system: HCC-2998 colon
NCI-H460 lung = system: NCI-H460 lung
COLO 205 colon = system: COLO 205 colon
SW-620 colon = system: SW-620 colon
HCT-15 colon = system: HCT-15 colon
IGROV1 ovarian = system: IGROV1 ovarian
SNB-78 CNS = system: SNB-78 CNS
RPMI-8226 leukemia = system: RPMI-8226 leukemia
UACC-257 melanoma = system: UACC-257 melanoma
OVCAR-8 ovarian = system: OVCAR-8 ovarian
SF-295 CNS = system: SF-295 CNS
SK-OV-3 ovarian = system: SK-OV-3 ovarian
OVCAR-5 ovarian = system: OVCAR-5 ovarian
M19-MEL melanoma = system: M19-MEL melanoma
LOX IMVI melanoma = system: LOX IMVI melanoma
EKVX NSCLC = system: EKVX NSCLC
K-562 leukemia = system: K-562 leukemia
CCRF-CEM leukemia = system: CCRF-CEM leukemia
DMS 273 small cell lung = system: DMS 273 small cell lung
786-0 renal = system: 786-0 renal
OVCAR-3 ovarian = system: OVCAR-3 ovarian
XF 498 CNS = system: XF 498 CNS
HCT-116 colon = system: HCT-116 colon
A549 NSCLC = system: A549 NSCLC
M14 melanoma = system: M14 melanoma
UACC-62 melanoma = system: UACC-62 melanoma
LXFL 529 NSCLC = system: LXFL 529 NSCLC
SK-MEL-5 melanoma = system: SK-MEL-5 melanoma
MOLT-4 leukemia = system: MOLT-4 leukemia
CAKI-1 renal = system: CAKI-1 renal
SF-268 CNS = system: SF-268 CNS
A498 renal = system: A498 renal
KM12 colon = system: KM12 colon
HOP-62 NSCLC = system: HOP-62 NSCLC
HOP-92 NSCLC = system: HOP-92 NSCLC
RXF 393 renal = system: RXF 393 renal
SR leukemia = system: SR leukemia

## COc1ccc(C23c4ccc(OC)cc4CC2(c2ccc([N+](=O)[O-])cc2)Cc2cc(OC)ccc23)cc1 (stereo not drawn)
SK-MEL-28 melanoma
  TGI: > 55.1 µM
MALME-3M melanoma
  TGI: > 68.4 µM
TK-10 renal
  TGI: > 100 µM
SNB-75 CNS
  TGI: > 100 µM
UO-31 renal
  TGI: > 77.4 µM
U251 CNS
  TGI: > 100 µM
HT29 colon
  TGI: > 100 µM
DLD-1 colon
  TGI: > 100 µM
HOP-18 NSCLC
  TGI: 30.8 µM
ACHN renal
  TGI: > 100 µM
HL-60(TB) leukemia
  TGI: > 100 µM
SF-539 CNS
  TGI: > 74.5 µM
SN12C renal
  TGI: > 100 µM
SNB-19 CNS
  TGI: > 100 µM
NCI-H23 lung
  TGI: > 79.3 µM
KM20L2 colon
  TGI: > 44.9 µM
OVCAR-4 ovarian
  TGI: > 100 µM
NCI-H522 lung
  TGI: > 100 µM
NCI-H226 lung
  TGI: > 100 µM
SK-MEL-2 melanoma
  TGI: > 100 µM
DMS 114 small cell lung
  TGI: > 100 µM
HCC-2998 colon
  TGI: > 73 µM
NCI-H460 lung
  TGI: > 100 µM
COLO 205 colon
  TGI: > 52.1 µM
SW-620 colon
  TGI: > 100 µM
HCT-15 colon
  TGI: > 100 µM
IGROV1 ovarian
  TGI: > 81.6 µM
SNB-78 CNS
  TGI: > 100 µM
RPMI-8226 leukemia
  TGI: > 100 µM
UACC-257 melanoma
  TGI: > 100 µM
OVCAR-8 ovarian
  TGI: > 100 µM
SF-295 CNS
  TGI: > 100 µM
SK-OV-3 ovarian
  TGI: > 100 µM
OVCAR-5 ovarian
  TGI: > 85.4 µM
M19-MEL melanoma
  TGI: > 88.2 µM
LOX IMVI melanoma
  TGI: > 100 µM
EKVX NSCLC
  TGI: > 37.9 µM
K-562 leukemia
  TGI: > 100 µM
CCRF-CEM leukemia
  TGI: > 100 µM
DMS 273 small cell lung
  TGI: > 100 µM
786-0 renal
  TGI: > 100 µM
OVCAR-3 ovarian
  TGI: > 100 µM
XF 498 CNS
  TGI: > 100 µM
HCT-116 colon
  TGI: > 100 µM
A549 NSCLC
  TGI: > 100 µM
M14 melanoma
  TGI: > 100 µM
UACC-62 melanoma
  TGI: > 41.7 µM
LXFL 529 NSCLC
  TGI: > 100 µM
SK-MEL-5 melanoma
  TGI: > 40.2 µM
MOLT-4 leukemia
  TGI: > 69.2 µM
CAKI-1 renal
  TGI: > 100 µM
SF-268 CNS
  TGI: > 56.9 µM
A498 renal
  TGI: > 100 µM
KM12 colon
  TGI: > 100 µM
HOP-62 NSCLC
  TGI: > 88 µM
HOP-92 NSCLC
  TGI: > 44.6 µM

## O=C([O-])c1ccc2c(c1)-c1nc-2nc2[n-]c(nc3nc(nc4[n-]c(n1)c1ccc(C(=O)[O-])cc41)-c1ccc(C(=O)[O-])cc1-3)c1ccc(C(=O)[O-])cc21.[Gd+3].[K+]
SK-MEL-28 melanoma
  GI50: > 100 µM
  TGI: > 100 µM
MALME-3M melanoma
  GI50: > 100 µM
  TGI: > 100 µM
TK-10 renal
  GI50: > 100 µM
  TGI: > 100 µM
SNB-75 CNS
  GI50: > 100 µM
  TGI: > 100 µM
UO-31 renal
  GI50: > 100 µM
  TGI: > 100 µM
U251 CNS
  GI50: > 57 µM
  TGI: > 100 µM
HT29 colon
  GI50: > 83.1 µM
  TGI: > 100 µM
DLD-1 colon
  GI50: > 53.2 µM
  TGI: > 94 µM
HOP-18 NSCLC
  GI50: > 100 µM
  TGI: > 100 µM
ACHN renal
  GI50: > 100 µM
  TGI: > 100 µM
HL-60(TB) leukemia
  GI50: > 38.5 µM
  TGI: > 54.5 µM
SF-539 CNS
  GI50: > 46.5 µM
  TGI: > 69 µM
SN12C renal
  GI50: > 72.7 µM
  TGI: > 100 µM
SNB-19 CNS
  GI50: > 100 µM
  TGI: > 100 µM
NCI-H23 lung
  GI50: > 100 µM
  TGI: > 100 µM
KM20L2 colon
  GI50: > 58.8 µM
  TGI: > 100 µM
OVCAR-4 ovarian
  GI50: > 46.7 µM
  TGI: > 71.7 µM
NCI-H522 lung
  GI50: > 100 µM
  TGI: > 100 µM
NCI-H226 lung
  GI50: > 100 µM
  TGI: > 100 µM
SK-MEL-2 melanoma
  GI50: > 100 µM
  TGI: > 100 µM
HCC-2998 colon
  GI50: > 100 µM
  TGI: > 100 µM
NCI-H460 lung
  GI50: > 100 µM
  TGI: > 100 µM
COLO 205 colon
  GI50: > 38.9 µM
  TGI: > 55.2 µM
RXF 393 renal
  GI50: > 100 µM
  TGI: > 100 µM
SW-620 colon
  GI50: > 22.8 µM
  TGI: > 50.9 µM
HCT-15 colon
  GI50: > 42.6 µM
  TGI: > 64.3 µM
IGROV1 ovarian
  GI50: > 100 µM
  TGI: > 100 µM
SNB-78 CNS
  GI50: > 100 µM
  TGI: > 100 µM
RPMI-8226 leukemia
  GI50: > 47.2 µM
  TGI: > 66 µM
UACC-257 melanoma
  GI50: > 100 µM
  TGI: > 100 µM
OVCAR-8 ovarian
  GI50: > 100 µM
  TGI: > 100 µM
SF-295 CNS
  GI50: > 100 µM
  TGI: > 100 µM
SK-OV-3 ovarian
  GI50: > 100 µM
  TGI: > 100 µM
OVCAR-5 ovarian
  GI50: > 100 µM
  TGI: > 100 µM
LOX IMVI melanoma
  GI50: 16.6 µM
  TGI: 45.7 µM
EKVX NSCLC
  GI50: > 100 µM
  TGI: > 100 µM
K-562 leukemia
  GI50: > 38.9 µM
  TGI: > 56.8 µM
CCRF-CEM leukemia
  GI50: > 36.5 µM
  TGI: > 54.2 µM
DMS 273 small cell lung
  GI50: 16.6 µM
  TGI: 36.1 µM
786-0 renal
  GI50: 18 µM
  TGI: 40.9 µM
OVCAR-3 ovarian
  GI50: > 100 µM
  TGI: > 100 µM
XF 498 CNS
  GI50: > 100 µM
  TGI: > 100 µM
SR leukemia
  GI50: 30.6 µM
  TGI: 53.9 µM
HCT-116 colon
  GI50: > 40.1 µM
  TGI: > 56.6 µM
A549 NSCLC
  GI50: > 100 µM
  TGI: > 100 µM
M14 melanoma
  GI50: > 65.1 µM
  TGI: > 100 µM
UACC-62 melanoma
  GI50: 99.7 µM
  TGI: > 100 µM
LXFL 529 NSCLC
  GI50: > 57.1 µM
  TGI: > 100 µM
SK-MEL-5 melanoma
  GI50: > 100 µM
  TGI: > 100 µM
MOLT-4 leukemia
  GI50: > 49 µM
  TGI: > 100 µM
CAKI-1 renal
  GI50: > 100 µM
  TGI: > 100 µM
SF-268 CNS
  GI50: > 64.1 µM
  TGI: > 100 µM
A498 renal
  GI50: > 100 µM
  TGI: > 100 µM
KM12 colon
  GI50: 19.1 µM
  TGI: 34.6 µM
HOP-62 NSCLC
  GI50: > 100 µM
  TGI: > 100 µM
HOP-92 NSCLC
  GI50: > 100 µM
  TGI: > 100 µM

## COc1ccc(-c2cc(=O)c3c(O)c(OC)c(O)c(OC)c3o2)cc1OC
SK-MEL-28 melanoma
  TGI: > 100 µM
MALME-3M melanoma
  TGI: > 100 µM
SNB-75 CNS
  TGI: > 100 µM
UO-31 renal
  TGI: > 100 µM
U251 CNS
  TGI: > 100 µM
HT29 colon
  TGI: > 100 µM
DLD-1 colon
  TGI: > 100 µM
HOP-18 NSCLC
  TGI: > 100 µM
ACHN renal
  TGI: > 100 µM
HL-60(TB) leukemia
  TGI: > 100 µM
SF-539 CNS
  TGI: > 100 µM
SN12C renal
  TGI: > 100 µM
SNB-19 CNS
  TGI: > 100 µM
NCI-H23 lung
  TGI: > 100 µM
KM20L2 colon
  TGI: > 100 µM
OVCAR-4 ovarian
  TGI: > 100 µM
NCI-H522 lung
  TGI: 42.8 µM
NCI-H226 lung
  TGI: > 100 µM
DMS 114 small cell lung
  TGI: > 100 µM
HCC-2998 colon
  TGI: > 100 µM
COLO 205 colon
  TGI: > 100 µM
RXF 393 renal
  TGI: 55.6 µM
SW-620 colon
  TGI: > 100 µM
HCT-15 colon
  TGI: > 100 µM
IGROV1 ovarian
  TGI: > 100 µM
SNB-78 CNS
  TGI: > 100 µM
RPMI-8226 leukemia
  TGI: > 100 µM
UACC-257 melanoma
  TGI: > 100 µM
OVCAR-8 ovarian
  TGI: > 100 µM
SF-295 CNS
  TGI: > 100 µM
SK-OV-3 ovarian
  TGI: > 100 µM
M19-MEL melanoma
  TGI: > 100 µM
EKVX NSCLC
  TGI: > 100 µM
K-562 leukemia
  TGI: > 100 µM
CCRF-CEM leukemia
  TGI: > 100 µM
DMS 273 small cell lung
  TGI: > 100 µM
786-0 renal
  TGI: > 100 µM
XF 498 CNS
  TGI: > 100 µM
SR leukemia
  TGI: > 100 µM
HCT-116 colon
  TGI: > 100 µM
A549 NSCLC
  TGI: > 100 µM
M14 melanoma
  TGI: > 100 µM
UACC-62 melanoma
  TGI: > 100 µM
LXFL 529 NSCLC
  TGI: > 100 µM
SK-MEL-5 melanoma
  TGI: > 100 µM
MOLT-4 leukemia
  TGI: > 100 µM
SF-268 CNS
  TGI: > 100 µM
A498 renal
  TGI: > 100 µM
HOP-62 NSCLC
  TGI: > 100 µM
HOP-92 NSCLC
  TGI: > 100 µM
